Measured values: patent publication US9056844B2, “4-substituted-3-benzyloxy-bicyclo[3.1.0]hexane compounds as mGluR 2/3 antagonists” (Eli Lilly and Company, priority 2010, dated 2015)

Legend:
[1] = target: T1, human mGlu1 receptor (Homo sapiens, UniProt Q13255); assay: FLIPR calcium assay for mGlu receptor selectivity, mGlu1 antagonist mode; assay type: cell-based; conditions: inhibition of EC90 glutamate response, read-out: mGlu1 % inhib. @12.5 μM
T1 construct: expressed in transfected cells; host or cells: AV12 cells, co-expressing rat EAAT1
T1 sequence (Q13255 19-1194): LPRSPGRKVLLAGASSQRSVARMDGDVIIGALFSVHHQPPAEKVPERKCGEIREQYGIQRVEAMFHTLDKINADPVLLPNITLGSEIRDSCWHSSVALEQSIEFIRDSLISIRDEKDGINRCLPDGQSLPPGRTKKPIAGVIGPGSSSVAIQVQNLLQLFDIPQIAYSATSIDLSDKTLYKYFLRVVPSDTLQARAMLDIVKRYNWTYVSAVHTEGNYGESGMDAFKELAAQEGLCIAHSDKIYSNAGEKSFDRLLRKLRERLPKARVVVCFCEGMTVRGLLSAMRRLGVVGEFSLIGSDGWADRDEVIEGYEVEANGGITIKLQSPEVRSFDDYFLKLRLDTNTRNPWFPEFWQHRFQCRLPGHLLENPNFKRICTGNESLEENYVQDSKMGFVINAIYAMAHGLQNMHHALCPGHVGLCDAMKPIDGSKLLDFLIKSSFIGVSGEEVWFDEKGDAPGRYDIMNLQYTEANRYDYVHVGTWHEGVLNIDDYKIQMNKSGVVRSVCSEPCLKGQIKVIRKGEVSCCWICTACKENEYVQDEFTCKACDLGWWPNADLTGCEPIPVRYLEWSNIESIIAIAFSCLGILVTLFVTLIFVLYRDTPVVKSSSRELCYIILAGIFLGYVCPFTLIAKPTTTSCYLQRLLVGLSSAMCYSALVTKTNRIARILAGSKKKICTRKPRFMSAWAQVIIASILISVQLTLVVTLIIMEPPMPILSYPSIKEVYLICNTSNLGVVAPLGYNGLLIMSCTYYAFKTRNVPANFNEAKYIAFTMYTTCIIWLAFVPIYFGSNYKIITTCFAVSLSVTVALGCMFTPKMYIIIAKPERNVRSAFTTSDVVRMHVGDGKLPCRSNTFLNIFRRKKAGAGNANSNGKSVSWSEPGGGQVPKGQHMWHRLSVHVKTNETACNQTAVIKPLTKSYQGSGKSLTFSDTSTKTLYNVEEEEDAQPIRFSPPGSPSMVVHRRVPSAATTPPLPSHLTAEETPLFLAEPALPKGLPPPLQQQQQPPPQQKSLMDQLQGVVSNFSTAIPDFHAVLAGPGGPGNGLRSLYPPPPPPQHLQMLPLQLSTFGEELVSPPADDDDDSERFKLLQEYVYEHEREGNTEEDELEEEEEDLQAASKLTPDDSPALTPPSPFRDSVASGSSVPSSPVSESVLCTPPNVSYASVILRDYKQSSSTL
Source text: (§1) FLIPR and cAMP Assays for mGlu Receptor Selectivity
(§2) The relative antagonist potencies of the compounds of the invention for the other human mGlu receptors can be assessed with either a cAMP assay or fluorometric calcium response assay (see for example Fell et al., JPET (in press)). Briefly, individual AV12 cell lines containing the rat EAAT1 glutamate transporter and stably expressing the human mGlu1, 2, 3, 4, 5, 6, & 8 receptors are used for these studies. The mGlu1 and 5 receptors are […], so they naturally signal through phospholipase C, producing a calcium flux response which can be used to measure receptor activation using a Fluorometric Imaging Plate Reader (FLIPR, Molecular Devices). The cell lines expressing the mGlu2, 3, 4, and 8 receptor are designed to express the Gα15 subunit so that these Gi-coupled receptors will generate a calcium flux response similar to the mGlu1 and 5 receptor expressing cell lines. The mGlu6 receptor is tested in a cAMP format using methods analogous to those developed for mGlu2 and mGlu3 above. These cell lines are maintained as previously described except that amounts of L-glutamine and selection agents (geneticin, hygromycin B, zeocin, and blasticidin) may vary depending on the cell line. Confluent cultures are passaged biweekly.
Intracellular calcium levels are monitored using FLIPR before and after the addition of test compounds and Fluo-3 AM (Invitrogen) or Calcium 4 (Molecular Devices) dye, depending on the cell line. Cells are plated 24 hours prior to assay in a variable concentration of glutamine and a variable density of cells per well, depending on the cell line. The medium is removed and the cells are incubated with 8 μM of dye (50 μl per well) for 90 or 120 minutes (depending on cell line) at 25° C. A single-addition FLIPR assay generating an 11-point concentration response curve for the agonist glutamate is conducted prior to each experiment to confirm the appropriate sensitivity of the cells. The results are analyzed using GraphPad Prism v4.03 to calculate the concentrations of glutamate needed to induce the EC90 (antagonist assay) and EC10 (potentiator assay) responses.
Compounds are tested at each mGlu receptor in a two-addition FLIPR assay using a 10-point concentration response profile starting at a final concentration of 25 μM for the agonist assay and 12.5 μM for the potentiator and antagonist assays. The first addition detects any agonist activity, and the second addition consists of 100 μl of select concentrations (depending on cell line) of glutamate in assay buffer generating an EC10 or EC90 glutamate response. Agonist effects are quantified as percent stimulation induced by compound alone relative to the maximal glutamate response. Antagonist effects are quantified by calculating the percent inhibition of the EC90 glutamate response caused by the compound. Potentiation effects are quantified as percent increase in the presence of an EC10 response in glutamate relative to the ECmax response. All data are calculated as relative IC50 or EC50 values using a four-parameter logistic curve fitting program (ActivityBase v5.3.1.22).

[2] = target: T2, human mGlu6 receptor (Homo sapiens, UniProt O15303); assay: mGlu6 cAMP antagonist assay (reference agonist L-AP4); assay type: cell-based; conditions: cAMP format
T2 construct: expressed in transfected cells; host or cells: AV12 cells, co-expressing rat EAAT1
T2 sequence (O15303 25-877): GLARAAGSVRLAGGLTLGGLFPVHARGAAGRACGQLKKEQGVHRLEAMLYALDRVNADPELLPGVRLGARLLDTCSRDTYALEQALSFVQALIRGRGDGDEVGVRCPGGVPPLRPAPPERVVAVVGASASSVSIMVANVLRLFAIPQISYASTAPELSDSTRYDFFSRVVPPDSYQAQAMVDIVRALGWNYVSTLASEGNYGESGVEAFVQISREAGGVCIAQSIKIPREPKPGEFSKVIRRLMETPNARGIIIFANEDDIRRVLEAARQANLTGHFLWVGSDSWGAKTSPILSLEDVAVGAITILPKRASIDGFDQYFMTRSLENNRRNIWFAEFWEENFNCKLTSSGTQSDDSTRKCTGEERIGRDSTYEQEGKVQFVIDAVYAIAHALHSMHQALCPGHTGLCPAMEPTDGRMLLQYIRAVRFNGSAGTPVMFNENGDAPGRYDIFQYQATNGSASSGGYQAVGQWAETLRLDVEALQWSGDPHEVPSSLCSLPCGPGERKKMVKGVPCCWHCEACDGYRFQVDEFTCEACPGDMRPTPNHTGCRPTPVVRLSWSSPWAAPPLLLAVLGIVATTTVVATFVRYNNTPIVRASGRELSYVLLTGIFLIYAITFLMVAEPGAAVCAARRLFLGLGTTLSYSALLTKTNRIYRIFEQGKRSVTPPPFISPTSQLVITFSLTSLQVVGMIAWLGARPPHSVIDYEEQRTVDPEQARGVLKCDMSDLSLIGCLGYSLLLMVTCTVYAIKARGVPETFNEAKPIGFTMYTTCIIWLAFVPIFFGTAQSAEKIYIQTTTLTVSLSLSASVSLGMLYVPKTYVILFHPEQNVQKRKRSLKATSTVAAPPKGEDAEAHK
Source text: as §1, §2
Antagonist activity in mGlu6 cells is measured using cAMP in a method analogous to that described above for mGlu2 and mGlu3 activity, except that the reference agonist was L-AP4 (Tocris). […] Relative IC50 and EC50 values are calculated from the top-bottom range of the concentration response curve using a four-parameter logistic curve fitting program (ActivityBase v5.3.1.22).

[3] = system: male NIH-Swiss mice; assay: Forced-swim test in mice (mFST); assay type: in vivo, mouse; conditions: for ED60: Mus musculus, ip, immobility in last 4 min of 6 min; for Maximal Decrease (1 − compound/control) * 100%: i.p., immobility time
Source text: Forced-Swim Test in Mice (mFST)
mFST is an established in vivo assay for antidepressant activity (Li et al. J Pharmacol Exp Ther. 319(1):254-9, 2006.). […] The mFST was used to evaluate potential antidepressant-like activity of novel mGlu2/3 antagonists essentially as described in previously published methods (see for example, Li et al. J Pharmacol Exp Ther. 319(1):254-9, 2006.). Briefly, male NIH-Swiss mice (Harlan Sprague-Dawley, Indianapolis, Ind.) weighing between 25-30 g are used. Group housed animals are removed from the vivarium to the testing area in their own cages and allowed to adapt to the new environment for at least 1 hour before testing. Compounds where R^1 and R^2 are both hydrogen are dissolved in water with minimal NaOH added for dissolution and are administered i.p. Compounds where R^1 and/or R^2 are other than hydrogen are prepared on the day of use in 2.0-2.5% N-methyl-pyrrolidinone and then suspended in 1% HEC, 0.25% Tween 80, and 0.05% Dow antifoam, and administered orally. Mice are placed in a cylinder (diameter: 10 cm; height: 25 cm) filled with 6 cm of water (22-25° C.) for 6 min. The duration of immobility during the last 4 min. of the 6 min. period of the test was scored. A mouse is recorded as immobile when floating motionless or making only those movements necessary to keep its head above water.

Structure (SMILES) | inhibition at 12.5 µM [1] [%] | IC50 [2] [nM] | ED60 [3] [mg/kg] | Maximal Decrease (1 − compound/control) * 100% [3] [%]
Cl.Cn1cnc(S[C@H]2[C@H]3[C@H](C(=O)O)[C@H]3[C@](N)(C(=O)O)[C@@H]2OCc2ccc(Cl)c(Cl)c2)n1 [Example 7, (1R,2R,3S,4S,5R,6R)-2-Amino-3-[(3,4-dichlorophenyl)methoxy]-4-[(1-methyl-1,2,4-triazol-3-yl)sulfanyl]bicyclo[3.1.0]hexane-2,6-dicarboxylic acid hydrochloride.] | 11.2 | 3690 | > 10 | 18
CC(=O)N[C@H]1[C@H]2[C@H](C(=O)O)[C@H]2[C@](N)(C(=O)O)[C@@H]1OCc1ccc(Cl)c(Cl)c1 [Example 4, (1S,2R,3R,4S,5R,6S)-4-(Acetylamino)-2-amino-3-[(3,4-dichlorobenzyl)oxy]bicyclo[3.1.0]hexane-2,6-dicarboxylic acid] | -2 | 2640 ± 424 | 9.5 | 38
N[C@]1(C(=O)O)[C@@H]2[C@@H](C(=O)O)[C@@H]2[C@H](O)[C@H]1OCc1ccc(Cl)c(Cl)c1 [Example 1, (1S,2R,3S,4S,5R,6R)-2-Amino-3-[(3,4-dichlorobenzyl)oxy]-4-hydroxybicyclo[3.1.0]hexane-2,6-dicarboxylic acid] | -0.47 | 3300 | 1 | 59

Further lines, with some results ahead:

inhibition at 12.5 µM [1] [%] | IC50 [2] [nM] | Structure (SMILES) | ED60 [3] [mg/kg] | Maximal Decrease (1 − compound/control) * 100% [3] [%]
5 | 2820 | Cl.N[C@]1(C(=O)O)[C@@H]2[C@@H](C(=O)O)[C@@H]2[C@H](NC(=O)CO)[C@H]1OCc1ccc(Cl)c(Cl)c1 [Example 9, (1S,2R,3R,4S,5R,6S)-2-Amino-3-[(3,4-dichlorobenzyl)oxy]-4-[(hydroxyacetyl)amino]bicyclo[3.1.0]hexane-2,6-dicarboxylic acid hydrochloride] | 9.68 | 41
8.6 | 1290 ± 162 | N[C@]1(C(=O)O)[C@@H]2[C@@H](C(=O)O)[C@@H]2[C@H](Sc2nc[nH]n2)[C@H]1OCc1ccc(Cl)c(Cl)c1 [Example 2, (1R,2R,3S,4S,5R,6R)-2-Amino-3-[(3,4-dichlorobenzyl)oxy]-4-(1H-1,2,4-triazol-3-ylsulfanyl)bicyclo[3.1.0]hexane-2,6-dicarboxylic acid] | 2.08 | 62
